Our source for the IC50 values is BindingDB's records for doi:10.1007/s00044-007-9052-5 (Central Drug Research Institute, 2008).

SMILES strings stand for the structures. pIC50: −log10 of the molar value.

The assay has as its target DNA ligase A (Mycobacterium tuberculosis (strain ATCC 25618 / H37Rv), UniProt P9WNV1). Briefly: Enzyme Assay. From the text:
All assays have been carried out using procedures previously described by our group (Srivastava et al., 2005a; 2005b; 2007)

On to `CC1(C)O[C@H]2OC(C(CCO)NCCCN[C@@H](CCO)C3O[C@@H]4OC(C)(C)O[C@@H]4[C@H]3OCc3ccccc3)[C@H](OCc3ccccc3)[C@H]2O1` (stereo partly specified) [Glycosylamine, 4], for which the pIC50 (in general, the negative decadic logarithm of the IC50, by convention in mol/L) was 4.34.
